Measured values from US11826402B2, “Combination therapy involving antibodies against claudin 18.2 for treatment of metastatic pancreatic adenocarcinoma” (Astellas Pharma Inc., priority 2013, dated 2023).
Entries after “also recorded” stand apart in the source; their conditions may differ.

What was measured:
[1] = system: CLDN18.2 expression in DANG; assay: Effect of chemotherapeutic agents on CLDN18.2 expression (RT-PCR, western blot); type: cell-based, human; details: DANG pretreated 2 days, Gem 1 ng/ml or Gem 1 ng/ml+Ox 10 ng/ml, versus untreated
Description: FIGS. 30A and 30B show the effect of treatment with chemotherapeutic agents on CLDN18.2 expression (RNA).
Actin was used to show equal loading of proteins.
The area of each bar is divided to indicate the percentage of cells in G0/G1, S and G2 phase.
For RNA isolation from pancreatic cancer cell lines, cells were seeded in 10 cm dishes and grown for 2-3 days until 80% confluent. RNA was isolated according to instructions supplied with the RNeasy® Mini Kit (Qiagen). cDNA preparation was performed following manufacturers instructions provided with the SuperScript® III First Strand kit (Invitrogen). RNA and cDNA samples were stored at −80° C.
Quantitative analysis of CLDN18.2 transcripts was performed by amplifying oligo(dT)-primed cDNAs in a 40 cycle PCR reaction using PCR primers #5054s (5′-[…]-3′) and #5060 as (5′-[…]-3′) differentiating between CLDN18.1 and CLDN18.2 isoforms. The reaction was prepared with SYBR Green (QuantiTect SYBR Green PCR Kit, Qiagen), which intercalates in double stranded DNA. […]
For isolation of proteins of pancreatic cancer cell lines, cells were seeded in 10 cm dishes and grown for 2-3 days until 80% confluent. […] Protein concentration was measured in a spectrophotometer (Absorption at 280 nm) and samples were stored at −80° C. until use. […]

[2] = system: CLDN18.2 on the cell surface of pancreatic cancer cell lines; assay: Flow cytometry (FACS) of IMAB362 on pancreatic cancer cell lines; type: binding, human; details: 2E5 cells/100 μl with 50 μg/ml IMAB362
Description: Cells were harvested with PBS/5 mM EDTA or Trypsin/EDTA from an exponentially growing culture at 70-85% confluency. Cells were counted, centrifuged for 5 min (468 g) and the pellet was resuspended in FACS buffer (2% FCS, 0.1% sodium azide in PBS) adjusting the concentration to 2×10^6/ml. 100 μl cells were plated in round bottom 96-well plates and again centrifuged (5 min, 468 g). […] Then, 200 μl FACS buffer was added to each well and plates were centrifuged (5 min, 468 g). The supernatant was removed and washing was repeated. Secondary goat anti-human antibodies (FC specific, F(ab′)2 conjugated with APC (Dianova)) were diluted (1:100) in FACS buffer and 30 μl was added to each well. Plates were incubated for 30 min at 4° C. After incubation plates were washed again two times with 200 μl FACS buffer and the pellet was finally resuspended in 100 μl FACS buffer for measurement FACS Array Bioanalyzer (BD) according to GA_018_BD FACS Array bioanalyzer.

Panc03.27 = assay: IMAB362-mediated ADCC assay; type: cell-based, human; details: at least 2 donors

Nc1ccn([C@@H]2O[C@H](CO)[C@@H](O)C2(F)F)c(=O)n1 [gemcitabine, 4-amino-1-(2-deoxy-2,2-difluoro-β-D-erythro-pentofuranosyl)pyrimidin-2(1H)-one]
mRNA and protein levels of CLDN18.2 [1]: increased; also recorded: upregulation
mRNA and protein levels of CLDN18.2 ([1]; listed as Gem): upregulation

IMAB362: chimeric IgG1 antibody directed against CLDN18.2, developed by Ganymed Pharmaceuticals AG
CLDN18 surface expression (FACS) ([2]; AsPC1): 0.14%
CLDN18 surface expression (FACS) ([2]; BxPC3 (ATCC)): 1.16%
CLDN18 surface expression (FACS) ([2]; BxPC3 (ECACC)): 0.90%
CLDN18 surface expression (FACS) ([2]; CAPAN1): 0.54%
CLDN18 surface expression (FACS) ([2]; CFPAC1): 0.55%
CLDN18 surface expression (FACS) ([2]; DANG): 1.19%
CLDN18 surface expression (FACS) ([2]; HPAC): 0.81%
CLDN18 surface expression (FACS) ([2]; HPAFII): 10.00%
CLDN18 surface expression (FACS) ([2]; HUP-T3): 0.23%
CLDN18 surface expression (FACS) ([2]; HUP-T4): 5.30%
CLDN18 surface expression (FACS) ([2]; KP-2): 0.54%
CLDN18 surface expression (FACS) ([2]; MiaPaCa2): 0.22%
CLDN18 surface expression (FACS) ([2]; Panc01): 65%
CLDN18 surface expression (FACS) ([2]; Panc03.27): 7.30%
CLDN18 surface expression (FACS) ([2]; Panc04.03): 1.38%
CLDN18 surface expression (FACS) ([2]; Panc05.04): 15%
CLDN18 surface expression (FACS) ([2]; Patu8902): 0.39%
CLDN18 surface expression (FACS) ([2]; Patu8988T): 6.00%
CLDN18 surface expression (FACS) ([2]; SW1990): 2.53%
CLDN18 surface expression (FACS) ([2]; Su86.86): 1.51%
CLDN18 surface expression (FACS) ([2]; Suit2): 0.41%
CLDN18 surface expression (FACS) ([2]; YPAC): 0.23%
ADCC EC50 (Panc03.27): n.m.
ADCC Max. lysis (Panc03.27): n.m.
